# Reference: US10532053B2, “Histone deacetylase inhibitor, and preparation method and use thereof” (GUANGDONG ZHONGSHENG PHARMACEUTICAL CO., LTD, priority 2015, dated 2020)
# Key:
# [1] = system: B-cell lymphoma Ramos; assay: Cell proliferative activity (MTT / cck-8); format: cell-based; conditions: Homo sapiens, read-out: Half-Inhibitory Concentration IC50 Ramos
# Protocol: (§1) Tumor cell line A375: human melanoma cell; H460: lung adenocarcinoma cell; Hela: human cervical cancer cell; HepG2: human liver cancer cell; and SKOV-3: human ovarian cancer cell, were all purchased from ATCC and cultured to logarithmic phase according to the cultivation protocol recommended by ATCC. The cells in the logarithmic phase were plated onto a 96-well plate at 2000-3000 cells/well; in the case of adherent cells, the cells should be adherent to the wall. […] After that, the cell proliferative activity was determined by MTT assay for the tumor cells representing the solid tumor model and by cck-8 assay for the tumor cells representing the hematologic tumor model.
# [2] = system: Human cervical cancer cell Hela; assay: Cell proliferative activity (MTT / cck-8); format: cell-based; conditions: Cervical cancer, Table 5, read-out: Half-Inhibitory Concentration IC50 Hela
# Protocol: as §1
# [3] = system: Human liver cancer cell HepG2; assay: Cell proliferative activity (MTT / cck-8); format: cell-based; conditions: Liver cancer, Table 5, read-out: Half-Inhibitory Concentration IC50 HepG2
# Protocol: as §1
# [4] = system: Human lung cancer cell H460; assay: Cell proliferative activity (MTT / cck-8); format: cell-based; conditions: NCI-H460, Lung cancer, Table 5, read-out: Half-Inhibitory Concentration IC50 H460
# Protocol: as §1
# [5] = system: Human ovarian cancer cell SKOV-3; assay: Cell proliferative activity (MTT / cck-8); format: cell-based; conditions: SK-OV-3, Ovarian cancer, Table 5, read-out: Half-Inhibitory Concentration IC50 SKOV-3
# Protocol: as §1
# [6] = system: Leukemia K562; assay: Cell proliferative activity (MTT / cck-8); format: cell-based; conditions: Homo sapiens, read-out: Half-Inhibitory Concentration IC50 K562
# Protocol: as §1
# [7] = system: Leukemia MV4-11; assay: Cell proliferative activity (MTT / cck-8); format: cell-based; conditions: Homo sapiens, read-out: Half-Inhibitory Concentration IC50 MV4-11
# Protocol: as §1
# [8] = system: Multiple myeloma RPMI8226; assay: Cell proliferative activity (MTT / cck-8); format: cell-based; conditions: Homo sapiens, RPMI-8226, read-out: Half-Inhibitory Concentration IC50 RPMI8226
# Protocol: as §1
# [9] = system: Multiple myeloma U266; assay: Cell proliferative activity (MTT / cck-8); format: cell-based; conditions: Homo sapiens, U-266, read-out: Half-Inhibitory Concentration IC50 U266
# Protocol: as §1
# [10] = system: Ovarian cancer A2780s; assay: Cell proliferative activity (MTT / cck-8); format: cell-based; conditions: Homo sapiens, read-out: Half-Inhibitory Concentration IC50 A2780s
# [11] = system: Breast cancer SKBR3; assay: Cell proliferative activity (MTT / cck-8); format: cell-based; conditions: Homo sapiens, SK-BR-3, read-out: Half-Inhibitory Concentration IC50 SKBR3
# [12] = system: Lung cancer A549; assay: Cell proliferative activity (MTT / cck-8); format: cell-based; conditions: Homo sapiens, read-out: Half-Inhibitory Concentration IC50 A549
# [13] = system: Colon cancer HCT116; assay: Cell proliferative activity (MTT / cck-8); format: cell-based; conditions: Homo sapiens, HCT-116, read-out: Half-Inhibitory Concentration IC50 HCT116
# [14] = system: Colon cancer HT29; assay: Cell proliferative activity (MTT / cck-8); format: cell-based; conditions: Homo sapiens, HT-29, read-out: Half-Inhibitory Concentration IC50 HT29
# [15] = system: HBL-1 cells; assay: Therapeutic effect on the B-cell lymphoma HBL-1 subcutaneous tumor model; format: in vivo, NOD/SCID mice; conditions: HBL-1 model, 40 mg/kg intragastrically once every other day, 9 times; vs solvent group
# [16] = system: Ramos cells; assay: Therapeutic effect on the B-cell lymphoma Ramos subcutaneous tumor model; format: in vivo, NOD/SCID mice; conditions: 40 mg/kg intragastrically once every other day, 6 times, vs solvent group
# [17] = molecular target: HDAC10 (Homo sapiens, UniProt Q969S8); conditions: read-out: IC50 HDAC10; Table 4, Class IIb
# Chain of HDAC10 (Q969S8 whole entry): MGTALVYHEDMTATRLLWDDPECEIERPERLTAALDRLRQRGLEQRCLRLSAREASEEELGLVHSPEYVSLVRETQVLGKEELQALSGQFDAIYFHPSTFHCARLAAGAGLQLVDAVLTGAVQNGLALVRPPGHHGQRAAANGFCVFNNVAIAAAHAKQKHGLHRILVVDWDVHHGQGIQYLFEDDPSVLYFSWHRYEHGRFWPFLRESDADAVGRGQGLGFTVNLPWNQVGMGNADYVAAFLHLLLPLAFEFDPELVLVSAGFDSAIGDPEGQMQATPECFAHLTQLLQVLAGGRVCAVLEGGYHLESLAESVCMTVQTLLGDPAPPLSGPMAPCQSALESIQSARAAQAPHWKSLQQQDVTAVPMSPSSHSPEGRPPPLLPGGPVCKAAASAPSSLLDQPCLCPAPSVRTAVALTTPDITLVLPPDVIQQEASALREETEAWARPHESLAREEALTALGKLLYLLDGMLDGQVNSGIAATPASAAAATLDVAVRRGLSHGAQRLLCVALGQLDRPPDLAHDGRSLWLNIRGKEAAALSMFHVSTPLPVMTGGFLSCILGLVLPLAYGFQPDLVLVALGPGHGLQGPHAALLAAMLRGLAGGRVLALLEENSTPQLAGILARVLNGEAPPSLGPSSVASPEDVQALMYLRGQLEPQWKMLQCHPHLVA
# Protocol: The HDAC inhibitory activity was determined by fluorescence-coupled acetylated peptide substrate assay (Lys-Ac-AMC). HDAC1 protein was purchased from BPS Bioscience, and the reaction buffer system was a modified tris(hydroxymethyl)aminomethane buffer (pH 7.0). The small molecule compounds of the present invention were prepared by being dissolved in 100% DMSO. HDAC was prepared in a buffer at a certain concentration as an enzyme solution; trypsin and fluorescent group 4-amino-7-coumarin coupled-acetylated peptide (Ac-peptide) substrate were prepared in a buffer at a certain concentration as a substrate solution. The compounds were added into the reaction wells in a 384-well plate at a designed concentration of 10 μM, 1 μM, 0.5 μM, 0.1 μM, 0.05 μM, 0.01 μM, 0.005 μM, 0.001 μM, and 0.00005 μM, respectively, and then 15 μl of the HDAC solution was added into the reaction wells (15 μl of blank buffer to the control well). […] The results were analyzed by GraphPad Prism software and IC50 values were calculated according to the formula: Y=Background Data+(Top Data−Background Data)/(1+10^((Log IC50−X) a curve slope)), where Y: the inhibition rate (%) and X: the concentration of the compound.
structure (smiles),measurement,setting,value
"O=C(CCCCCCNC(=O)c1cnc(N(c2ccccc2)c2ccccc2)nc1)NO [ACY-1215, reference compound]",IC50,[1],> 5 µM
same,IC50,[2],> 5 µM
same,IC50,[3],> 5 µM
same,IC50,[4],> 5 µM
same,IC50,[5],> 5 µM
same,IC50,[6],> 5 µM
same,IC50,[7],> 5 µM
same,IC50,[8],1.47 ± 0.31 µM
same,IC50,[9],> 5 µM
same,IC50,[10],> 5 µM
same,IC50,[11],> 5 µM
same,IC50,[12],> 5 µM
same,IC50,[13],> 5 µM
same,IC50,[14],> 5 µM
same,tumor inhibitory rate,[15],26.75%
same,tumor inhibitory rate,[16],no inhibitory effects of tumor growth
same,IC50,[17],0.194 ± 0.054 µM
